Measurements reported in patent US11266739B2, “Methods and compositions for adoptive cell therapy” (Juno Therapeutics, Inc., priority 2014, dated 2022).
Where a chain is given by its changes, count along the chain named. Names and notes keep the numbering of the source.

B1: R31H: variant CAR junction region, replacement numbered per SEQ ID NO:5 (protein)
chain: FWVLVVVGGVLACYSLLVTVAFIIFWVKRGHKKLLYIFKQPFMRPVQTTQEEDGCSCRFPEEEEGGCEL
modifications: CD28-4-1BB
B2: L34A: variant CAR junction region, replacement numbered per SEQ ID NO:5 (protein)
chain: B1 chain with H31R, L34A
modifications: CD28-4-1BB
B3: L34S: variant CAR junction region, replacement numbered per SEQ ID NO:5 (protein)
chain: B1 chain with H31R, L34S
modifications: CD28-4-1BB

Assays:
[1] = molecular target: HLA-A*11:01 (Homo sapiens, UniProt P04439, A114D/D185E/E176A/F33Y/L180Q/S129P/T187R); experiment: REVEAL Epitope Discovery System in vitro MHC-peptide binding assay, HLA-A*11:01; details: binding normalized to positive control peptide set at 100%, score >50 considered good or high affinity binding
Experimental: (§1) Actual binding affinities for certain HLA class I alleles (A*02:01, A*03:01, A*11:01, and B*08:01) were assessed in vitro for exemplary overlapping 9 amino acid peptide sequences within a portion of the 26 amino acid junction region spanning the CD28 and 4-1BB junction. Specifically, assessment was of a series of overlapping 9-mer peptides derived from the sequence […] (set forth in SEQ ID NO: 7), which contains a portion of the CD28 transmembrane domain and 4-1BB costimulatory domain spanning the junction between the domains (bond joining the two amino acids noted in underline). In addition, a series of overlapping 9-mer peptides of each of a number of different variants of this portion also were assessed, each variant containing a mutation or mutations in this region as described in Example 2.
(§2) The various 9-mer overlapping peptides were synthesized and their purity tested by MALDI-TOF Mass Spectrometry. The synthetic peptides were then incubated with recombinant MHC molecules to assess binding properties using the REVEAL Epitope Discovery System, which is a high-throughput binding assay that measures the degree to which each peptide is able to stabilize a ternary MHC-peptide complex (ProImmune, Oxford, United Kingdom). Each peptide was separately tested for this ability with respect to each of the HLA class I alleles, normalized to the degree observed for a positive control (known T cell epitope for the relevant allele). The results are reported as a score, in which the binding was normalized to the positive control peptide set at 100%.

[2] = molecular target: HLA-B*08:01 (Homo sapiens, UniProt P01889, A93T/A95T/D138N/E176V/E187T/K202T/Q94N/R180D/S35A/V36M/Y33D/Y91F); experiment: REVEAL Epitope Discovery System in vitro MHC-peptide binding assay, HLA-B*08:01; details: binding normalized to positive control peptide set at 100%, score >50 considered good or high affinity binding
Experimental: as §1, §2

[3] = system: HLA class I alleles (A*02:01, A*03:01, A*11:01, and B*08:01); experiment: Comparison of in silico and in vitro binding of variant junction peptides to HLA class I alleles (summary); set-up: species or system human; details: without higher binding affinity to another HLA allele or for another peptide
Experimental: as §1, §2
The results were compared to predicted binding (IC50) values obtained for binding of the same peptide:MHC complex, using the in silico prediction methods as described in Example 2. Since the maximum IC50 value predicted was about 50,000, the IC50 values were log transformed, subtracted from LOG(50000) and divided by LOG(50000) to obtain a normalized in silico score ((Log(50000)−log IC50)/Log(50000)). […]

| Molecule | In Vitro Score (A*11:01) [1] | In Vitro Score (B*08:01) [2] | predicted or actual binding affinity or score for at least one HLA allele and/or at least one peptide [3] |
| --- | --- | --- | --- |
| AFIIFWVAR [junction 9-mer, peptide 2, mutation K29A] | 51.80 | 0.20 |  |
| AFIIFWVHR [junction 9-mer, peptide 2, mutation K29H] | 34.90 | 0.30 |  |
| AFIIFWVSR [junction 9-mer, peptide 2, mutation K29S] | 54.00 | 0.30 |  |
| FIIFWVHRG [junction 9-mer, peptide 3, mutation K29H] | 0.90 | 0.20 |  |
| FWVARGRKK [junction 9-mer, peptide 6, mutation K29A] | 8.90 |  |  |
| IFWVARGRK [junction 9-mer, peptide 5, mutation K29A] | 34.90 | 0.00 |  |
| IFWVHRGRK [junction 9-mer, peptide 5, mutation K29H] | 36.60 | 0.10 |  |
| IFWVKRGAK [junction 9-mer, peptide 5, mutation R32A] | 69.70 | 2.20 |  |
| IFWVKRGHK [junction 9-mer, peptide 5, mutation R32H] | 30.90 | 3.20 |  |
| IFWVKRGLK [junction 9-mer, peptide 5, mutation R32L] | 61.10 | 58.30 |  |
| IFWVKRGNK [junction 9-mer, peptide 5, mutation R32N] | 45.90 | 0.10 |  |
| IFWVKRGSK [junction 9-mer, peptide 5, mutation R32S] | 47.90 | 1.20 |  |
| IFWVQRGAK [junction 9-mer, peptide 5, mutation K29Q/R32A] | 61.30 | 0.20 |  |
| IFWVQRGNK [junction 9-mer, peptide 5, mutation K29Q/R32N] | 67.50 | 0.10 |  |
| IFWVQRGRK [junction 9-mer, peptide 5, mutation K29Q] | 128.50 | 0.00 |  |
| IFWVSRGRK [junction 9-mer, peptide 5, mutation K29S] | 39.20 | 0.00 |  |
| IIFWVARGR [junction 9-mer, peptide 4, mutation K29A] | 70.60 | 0.30 |  |
| IIFWVHRGR [junction 9-mer, peptide 4, mutation K29H] | 77.50 | 0.20 |  |
| IIFWVKRGA [junction 9-mer, peptide 4, mutation R32A] | 22.60 | 0.90 |  |
| IIFWVKRGL [junction 9-mer, peptide 4, mutation R32L] | 32.40 | 1.70 |  |

| Molecule | In Vitro Score (A*11:01) [1] | In Vitro Score (B*08:01) [2] | predicted or actual binding affinity or score for at least one HLA allele and/or at least one peptide [3] |
| --- | --- | --- | --- |
| IIFWVKRGN [junction 9-mer, peptide 4, mutation R32N] | 42.10 | 0.90 |  |
| IIFWVKRGR | 54.50 | 0.00 |  |
| IIFWVKRGS [junction 9-mer, peptide 4, mutation R32S] | 100.00 | 0.40 |  |
| IIFWVLRGR [junction 9-mer, peptide 4, mutation K29L] | 35.20 | 0.40 |  |
| IIFWVQRGA [junction 9-mer, peptide 4, mutation K29Q/R32A] | 56.50 | 0.20 |  |
| IIFWVQRGR [junction 9-mer, peptide 4, mutation K29Q] | 72.80 | 0.10 |  |
| IIFWVSRGR [junction 9-mer, peptide 4, mutation K29S] | 68.90 | 0.00 |  |
| VAFIIFWVK | 109.20 | 0.30 |  |
| VAFIIFWVR [junction 9-mer, peptide 1, mutation K29R] | 34.60 | 0.10 |  |
| VAFIIFWVS [junction 9-mer, peptide 1, mutation K29S] | 25.10 | 0.10 |  |
| WVARGRKKL [junction 9-mer, peptide 7, mutation K29A] | 13.80 | 32.40 |  |
| WVKRGAKKL [junction 9-mer, peptide 7, mutation R32A] | 4.60 | 34.10 |  |
| WVKRGHKKL [junction 9-mer, peptide 7, mutation R32H] | 2.80 | 47.60 |  |
| WVKRGNKKL [junction 9-mer, peptide 7, mutation R32N] | 4.10 | 65.90 |  |
| WVKRGSKKL [junction 9-mer, peptide 7, mutation R32S] | 11.80 | 56.10 |  |
| WVQRGNKKL [junction 9-mer, peptide 7, mutation K29Q/R32N] | 10.70 | 32.00 |  |
| WVQRGRKKL [junction 9-mer, peptide 7, mutation K29Q] | 12.80 | 45.10 |  |
| B1 |  |  | reduced |
| B2 |  |  | reduced |
| B3 |  |  | reduced |
